Laboratory results from article PMC11070402, “New antiproliferative 3-substituted oxindoles inhibiting EGFR/VEGFR-2 and tubulin polymerization” (Molecular Diversity, 2023).
Like-named read-outs stand apart in the source and are kept apart here.

Assays:
[1] = test system: 60 human cancer cell lines; assay: NCI one-dose assay against sixty NCI cancer cell lines; format: cell-based
Experimental: (§1) All novel scaffolds 6a–j were carefully selected by the National Cancer Institute (NCI), Bethesda, USA, to elucidate their cytotoxic activity versus 60 human cancer cell lines at 10 µM as a single-dose concentration after a 48 h incubation period.
(§2) National Cancer Institution selected all the synthesized 6a–j (NCI), Bethesda, USA, for in vitro one-dose antitumor assay. The methodology protocol for the NCI anticancer screening was reported in detail elsewhere (http://www.dtp.nci.nih.gov). The anticancer assay was performed in full NCI 60 cell lines extracted from nine tumor cell lines, including leukemia, melanoma, lung, colon, CNS, ovarian, renal, prostate, and breast cancer cell lines.

[2] = test system: SNB-75 cells (CNS cancer cell line); assay: NCI one-dose assay, SNB-75; format: cell-based; settings: Homo sapiens
Experimental: as §1, §2

[3] = test system: NCI/ADR-RES (ovarian cancer cell line); assay: NCI one-dose assay, NCI/ADR-RES; format: cell-based; settings: Homo sapiens; NCI/ADR-RES (Ovarian Cancer), 10 uM single dose; read-out: Growth inhibition %
Experimental: as §1, §2

[4] = test system: UO-31; assay: NCI one-dose assay, UO-31; format: cell-based; settings: Homo sapiens; UO-31 (Renal Cancer), 10 uM single dose; read-out: Growth inhibition %
Experimental: as §1, §2

[5] = test system: K-562; assay: NCI one-dose assay, K-562; format: cell-based; settings: Homo sapiens, K562; K-562 (Leukemia), 10 uM single dose; read-out: Growth inhibition %
Experimental: as §1, §2

[6] = test system: MCF-7; assay: NCI one-dose assay, MCF-7; format: cell-based, human; settings: Homo sapiens, MCF7, MCF7 (Breast Cancer), 10 uM single dose; read-out: Growth inhibition %
Experimental: as §1, §2

[7] = test system: MOLT-4; assay: NCI one-dose assay, MOLT-4; format: cell-based; settings: Homo sapiens; MOLT-4 (Leukemia), 10 uM single dose; read-out: Growth inhibition %
Experimental: as §1, §2

[8] = test system: LOX IMVI; assay: NCI one-dose assay, LOX IMVI; format: cell-based; settings: Homo sapiens; LOX IMVI (Melanoma), 10 uM single dose; read-out: Growth inhibition %
Experimental: as §1, §2

[9] = test system: T-47D; assay: NCI one-dose assay, T-47D; format: cell-based; settings: Homo sapiens, T47D; T-47D (Breast Cancer), 10 uM single dose; read-out: Growth inhibition %
Experimental: as §1, §2

[10] = test system: SR; assay: NCI one-dose assay, SR; format: cell-based; settings: Homo sapiens; SR (Leukemia), 10 uM single dose; read-out: Growth inhibition %
Experimental: as §1, §2

[11] = test system: HOP-92 (non-small cell lung cancer cell line); assay: NCI one-dose assay, HOP-92; format: cell-based; settings: Homo sapiens
Experimental: as §1, §2

[12] = test system: NCI-H23; assay: NCI one-dose assay, NCI-H23; format: cell-based; settings: Homo sapiens; NCI-H23 (Non-Small Cell Lung Cancer), 10 uM single dose; read-out: Growth inhibition %
Experimental: as §1, §2

[13] = CAKI-1 (Renal Cancer), 10 uM single dose, read-out: Growth inhibition %
[14] = NCI-H226 (Non-Small Cell Lung Cancer), 10 uM single dose, read-out: Growth inhibition %
[15] = PC-3 (Prostate Cancer), 10 uM single dose, read-out: Growth inhibition %
[16] = UACC-62 (Melanoma), 10 uM single dose, read-out: Growth inhibition %
[17] = SNB-75 (CNS Cancer), 10 uM single dose, read-out: Growth inhibition %
[18] = HCT-15 (Colon Cancer), 10 uM single dose, read-out: Growth inhibition %
[19] = HOP-62 (Non-Small Cell Lung Cancer), 10 uM single dose, read-out: Growth inhibition %
[20] = HS 578T (Breast Cancer), 10 uM single dose, read-out: Growth inhibition %
[21] = IGROV-1, IGROV1 (Ovarian Cancer), 10 uM single dose, read-out: Growth inhibition %
[22] = MDA-MB-231, read-out: Growth inhibition %
[23] = OVCAR-3 (Ovarian Cancer), 10 uM single dose, read-out: Growth inhibition %
[24] = SF-268 (CNS Cancer), 10 uM single dose, read-out: Growth inhibition %
[25] = ACHN (Renal Cancer), 10 uM single dose, read-out: Growth inhibition %
[26] = HCT-116 (Colon Cancer), 10 uM single dose, read-out: Growth inhibition %
[27] = M14 (Melanoma), 10 uM single dose, read-out: Growth inhibition %
[28] = NCI-H322M (Non-Small Cell Lung Cancer), 10 uM single dose, read-out: Growth inhibition %
[29] = NCI-H522 (Non-Small Cell Lung Cancer), 10 uM single dose, read-out: Growth inhibition %
[30] = SF-539 (CNS Cancer), 10 uM single dose, read-out: Growth inhibition %
[31] = BT-549 (Breast Cancer), 10 uM single dose, read-out: Growth inhibition %
[32] = CCRF-CEM (Leukemia), 10 uM single dose, read-out: Growth inhibition %
[33] = RPMI-8226 (Leukemia), 10 uM single dose, read-out: Growth inhibition %
[34] = U-251, U251 (CNS Cancer), 10 uM single dose, read-out: Growth inhibition %
[35] = OVCAR-8 (Ovarian Cancer), 10 uM single dose, read-out: Growth inhibition %

| SMILES | inhibition at 10 µM [1, 13] [%] | inhibition at 10 µM [1, 14] [%] | inhibition at 10 µM [1, 15] [%] | inhibition at 10 µM [1, 16] [%] | inhibition at 10 µM [2, 17] [%] | inhibition at 10 µM [4] [%] | inhibition at 10 µM [5] [%] | inhibition at 10 µM [6] [%] | melting point [°C] | inhibition at 10 µM [1, 18] [%] | inhibition at 10 µM [1, 19] [%] | inhibition at 10 µM [1, 20] [%] | inhibition at 10 µM [1, 21] [%] | inhibition at 10 µM [1, 23] [%] | inhibition at 10 µM [1, 24] [%] | inhibition at 10 µM [7] [%] | inhibition at 10 µM [1, 25] [%] | inhibition at 10 µM [1, 26] [%] | inhibition at 10 µM [8] [%] | inhibition at 10 µM [9] [%] | also measured |
| --- | --- | --- | --- | --- | --- | --- | --- | --- | --- | --- | --- | --- | --- | --- | --- | --- | --- | --- | --- | --- | --- |
| O=C1Nc2ccccc2C1=Cc1ccc(OCC(=O)c2ccccc2)cc1 [Compound 6a, 3-{4-[2-Oxo-2-phenylethoxy]benzylidene}indolin-2-one] | 13.1 | 11 | 17.1 | 12.9 | 26.2 | 30.5 | 11.1 | 11.3 | 219 to 221 | – | – | – | – | – | – | – | – | – | – | – | inhibition at 10 µM [3]: 1.84% |
| O=C1Nc2ccc(Cl)cc2C1=Cc1ccc(OCC(=O)c2ccccc2)cc1 [Compound 6b, 5-Chloro-3-{4-[2-oxo-2 phenylethoxy]benzylidene}indolin-2-one] | 31.9 | 13.3 | 24.9 | 25.1 | 31.1 | 39.5 | 23.5 | 38 | 189 to 191 | 11.9 | 14.6 | 13.7 | 20.3 | 12.7 | 11.3 | 13.4 | – | – | – | – | inhibition at 10 µM [1, 22]: 15.5%; inhibition at 10 µM ([1]; SK-OV-3 (Ovarian Cancer), 10 uM single dose, read-out: Growth inhibition %): 11.9% |
| O=C1Nc2cc(Cl)ccc2C1=Cc1ccc(OCC(=O)c2ccccc2)cc1 [Compound 6c, 6-Chloro-3-{4-[2-oxo-2-phenylethoxy]benzylidene}indolin-2-one] | 26.4 | 13.2 | 28.5 | 27.9 | – | 35 | 18 | 38.2 | 199 to 201 | 23.5 | – | 12.6 | 20.1 | 10.8 | 11.4 | – | 15.9 | 12.2 | 16.5 | 16.3 | inhibition at 10 µM [1, 27]: 11.1%; inhibition at 10 µM [1, 28]: 11.6%; inhibition at 10 µM [1, 29]: 11.7%; inhibition at 10 µM ([1]; RXF 393 (Renal Cancer), 10 uM single dose, read-out: Growth inhibition %): 16.4%; inhibition at 10 µM [1, 30]: 13.8%; inhibition at 10 µM ([2]; SNB-75, 10 µM single dose, 48 h incubation, read-out: cell growth inhibition % (GI %)): 41.2% |
| O=C1Nc2ccc(F)cc2/C1=C\c1ccc(OCC(=O)c2ccccc2)cc1 [Compound 6d, (E/Z)-5-Fluoro-3-{4-[2-oxo-2-phenylethoxy]benzylidene}indolin-2-one] | 28.3 | 10.3 | 23 | 30.6 | 33.7 | 32.3 | 33.6 | 23.1 | 223 to 226 | 11.7 | 10.5 | 14.8 | – | – | 14.6 | 32.2 | – | 14.3 | 17.7 | 14.3 | inhibition at 10 µM [1, 31]: 10.9%; inhibition at 10 µM [1, 32]: 15.6%; inhibition at 10 µM ([1]; EKVX (Non-Small Cell Lung Cancer), 10 uM single dose, read-out: Growth inhibition %): 18.9%; inhibition at 10 µM ([1]; HL-60(TB) (Leukemia), 10 uM single dose, read-out: Growth inhibition %): 16.9%; inhibition at 10 µM ([1]; KM12 (Colon Cancer), 10 uM single dose, read-out: Growth inhibition %): 15.9%; inhibition at 10 µM [1, 27]: 12.1%; inhibition at 10 µM [1, 28]: 11.2%; inhibition at 10 µM [1, 29]: 12.4%; inhibition at 10 µM [1, 33]: 22.1%; inhibition at 10 µM [1, 30]: 14.3%; inhibition at 10 µM ([1]; SNB-19 (CNS Cancer), 10 uM single dose, read-out: Growth inhibition %): 14.9%; inhibition at 10 µM [1, 34]: 16.8%; inhibition at 10 µM [10]: 25.2% |
| COc1ccc2c(c1)C(=Cc1ccc(OCC(=O)c3ccccc3)cc1)C(=O)N2 [Compound 6e, 5-Methoxy-3-{4-[2-oxo-2-phenylethoxy]benzylidene}indolin-2-one] | 19.8 | 11.6 | 14.8 | 24.7 | – | 29.6 | 19.5 | 20.2 | 196 to 198 | 10.3 | – | – | – | – | – | 11.6 | 11.2 | 12 | 19.5 | – | inhibition at 10 µM [1, 28]: 12.4% |
| COc1ccc(C(=O)COc2ccc(C=C3C(=O)Nc4ccc(Cl)cc43)cc2)cc1 [Compound 6i, 5-Chloro-3-{4-[2-(4-methoxyphenyl)-2-oxoethoxy]benzylidene}indolin-2-one] | 22.7 | 17.4 | 29.6 | 20.1 | 37.6 | 38.1 | 25 | 22.1 | 183 to 185 | – | – | – | – | 10.8 | – | 21.8 | – | 10.4 | 12.3 | 23.9 | inhibition at 10 µM [1, 31]: 11.7%; inhibition at 10 µM [1, 32]: 12.5%; inhibition at 10 µM [1, 29]: 16.1%; inhibition at 10 µM [1, 35]: 10.6%; inhibition at 10 µM [1, 33]: 19.9%; inhibition at 10 µM ([1]; SK-MEL-2 (Melanoma), 10 uM single dose, read-out: Growth inhibition %): 22.2%; inhibition at 10 µM [3]: 13.1%; inhibition at 10 µM ([11]; HOP-92, 10 µM single dose, 48 h incubation, read-out: cell growth inhibition % (GI %)): 62.1%; inhibition at 10 µM [10]: 21.2% |
| COc1ccc(C(=O)COc2ccc(/C=C3/C(=O)Nc4cc(Cl)ccc43)cc2)cc1 [Compound 6j, (E/Z)-6-Chloro-3-{4-[2-(4-methoxyphenyl)-2-oxoethoxy]benzylidene}indolin-2-one] | 23.2 | 13.2 | 33.5 | 23.8 | 36.7 | 35.9 | 22.8 | 34.4 | 165 to 167 | – | 16.7 | – | 21.5 | 18.1 | – | 30.3 | 10.1 | 12.2 | – | 15.6 | inhibition at 10 µM [1, 27]: 10.3%; inhibition at 10 µM [1, 22]: 12.2%; inhibition at 10 µM ([1]; OVCAR-4 (Ovarian Cancer), 10 uM single dose, read-out: Growth inhibition %): 11%; inhibition at 10 µM [1, 35]: 13.4%; inhibition at 10 µM [1, 34]: 12.9%; inhibition at 10 µM ([11]; HOP-92 (Non-Small Cell Lung Cancer), 10 uM single dose, read-out: Growth inhibition %): 34.8%; inhibition at 10 µM [10]: 16.7%; inhibition at 10 µM [12]: 10.5% |
